Data on three compounds can be found in patent US20100048564A1, “FUSED BICYCLIC HETEROARYL DERIVATIVE” (DAIICHI SANKYO COMPANY, LIMITED, priority 2007, published 2010).

One data set has as its system Rat white adipocytes. Briefly: Adipocyte differentiation inhibition test (Test Example 3). It is filed as cell-based. The settings on record: with Compound A 3.3 nM, 5 days, Oil Red O ABS550, N.D. denotes not calculable; for IC50: Adipocyte, 120 h. The procedure:
Rat white adipocytes included in a white adipocyte culture kit purchased from Primary Cell Co., Ltd. were subjected to this test. A medium included in the white adipocyte culture kit purchased from Primary Cell Co., Ltd. was used as a growth medium or a differentiation-inducing medium.
The whole of the transportation medium was extracted immediately after the arrival of the purchased cells. The growth medium was added in an amount of 5 ml(/25 cm^2-flask), and the cells were cultured for one day. Thereafter, a cell suspension (83,000 cells/mL) was prepared using the growth medium. The cell suspension was dispensed to a 96-well type-I collagen-coated microplate (Becton, Dickinson and Company) at 5,000 to 6,000 cells/well (60 μL/well). A well to which only the growth medium not containing cells was dispensed (blank well) was provided as a blank group in each plate.
3) For the negative control group, DMSO diluted 20-fold with the differentiation-inducing medium was added at 3 μL/well (final DMSO concentration: 0.1% (v/v)) to the wells into which the cells were seeded.
After culturing for five days, the whole of the differentiation-inducing medium was removed from each well, and 60 μL of a 10% (v/v) formaldehyde solution (fixative solution) was added to each well. The cells were incubated at room temperature for 20 minutes. The whole of the fixative solution was removed and 60 μL of a 0.2% (v/v) Triton X-100 solution (Sigma) was dispensed to each well. The cells were incubated at room temperature for five minutes. The whole of the Triton X-100 solution was removed. A fat stain was prepared by dissolving Oil Red 0 (Sigma) in a 60% (v/v) isopropanol solution at 0.3% (w/v), and 60 μL of the fat stain was dispensed to each well. The cells were incubated at room temperature for 10 minutes. The whole of the fat stain was removed, and then 60 μL of a 60% (v/v) isopropanol solution was dispensed and removed. Thus, each well was washed twice. Thereafter, DMSO was added to each well at 100 μL per well, followed by stirring at room temperature for five minutes. […] The degree of adipocyte differentiation (%) of the test compound-added group was calculated assuming that the measured ABS550 of the positive control group was 100% and the measured ABS550 of the negative control group was 0.
N.D. denotes not calculable.

For the compound `Cc1cc(Oc2ccc3nc(COc4cccc(C(=O)O)c4)n(C)c3c2)cc(C)c1N.Cl.Cl` [Example 2, 3-{[6-(4-Amino-3,5-dimethylphenoxy)-1-methyl-1H-benzimidazol-2-yl]methoxy}benzoic acid dihydrochloride], the melting point lay within 235 to 239 °C. Also, in the data set with Rat white adipocytes, the IC50 was 12 nM and the “Imax (%)” value was −33%.

For the compound `Cl.Cn1c(COc2cccc(C(=O)O)c2)nc2ccc(Oc3cccc(F)c3)cc21` [Example 8, 3-{[6-(3-Fluorophenoxy)-1-methyl-1H-benzimidazol-2-yl]methoxy}benzoic acid hydrochloride], in the data set with Rat white adipocytes, the IC50 is 53 nM and the “Imax (%)” value was −29%.

Regarding `Cl.Cn1c(COc2cccc(C(=O)O)c2)nc2ccc(Oc3ccc(Cl)c(F)c3)cc21` [Example 10, 3-{[6-(4-Chloro-3-fluorophenoxy)-1-methyl-1H-benzimidazol-2-yl]methoxy}benzoic acid hydrochloride], in the data set with Rat white adipocytes, the IC50 is 45 nM and the “Imax (%)” value is reported as −29%.

Usually IC50 stands for the concentration that gives 50% inhibition. Usually melting point stands for the temperature of the solid-liquid transition.
